For the experiment, the target named is T1, Recombinant human cathepsin A (Homo sapiens, UniProt P10619).
T1 construct: Recombinant human cathepsin A (residues 29-480, with a C-terminal 10-His tag); 10-His (C); purchased R&D Systems 1049-SE
T1 sequence (P10619 29-312 limits assumed): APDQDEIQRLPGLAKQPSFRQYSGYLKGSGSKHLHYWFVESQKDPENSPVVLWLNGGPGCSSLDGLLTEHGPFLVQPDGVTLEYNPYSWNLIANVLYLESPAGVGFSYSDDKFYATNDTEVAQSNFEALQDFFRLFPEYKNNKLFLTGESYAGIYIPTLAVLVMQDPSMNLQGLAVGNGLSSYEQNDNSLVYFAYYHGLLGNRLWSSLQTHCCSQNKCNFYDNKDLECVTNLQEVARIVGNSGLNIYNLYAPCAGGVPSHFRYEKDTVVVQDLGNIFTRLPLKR
T1 sequence (P10619 327-480 limits assumed): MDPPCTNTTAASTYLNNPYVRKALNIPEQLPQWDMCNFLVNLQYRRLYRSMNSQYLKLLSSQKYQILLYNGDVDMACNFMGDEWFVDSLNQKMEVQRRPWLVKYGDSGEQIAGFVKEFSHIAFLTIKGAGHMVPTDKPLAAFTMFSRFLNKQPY
The experiment is described as follows: Cathepsin A inhibitory activity. It counts as biochemical. The method in brief:
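Human cathepsin A (res. 29-480, C-His10) pre-activated with cathepsin L (MES pH 6.0, DTT, 15 min, 37 °C; quenched with 10 μM E-64). Enzyme (833 ng/ml) preincubated 15 min RT with compound in MES pH 5.5/DTT, then 2 μM Bodipy FL-bradykinin for 15 min RT. Capillary electrophoresis product/substrate peak areas; IC50 from % inhibition.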

The mark [1] stands for this setting: read-out: Activity (2): Cathepsin A inhibitory activity (IC50 class).
The mark [2] stands for this setting: recombinant human cathepsin A 833 ng/ml, Bodipy FL-labeled bradykinin 2 μM, pH 5.5, read-out: CATH-A IC50.
Setting [3] is: recombinant human cathepsin A, read-out: Activity (2): Cathepsin A inhibitory activity, IC50 class.
The mark [4] stands for this setting: pharmacological test "Cathepsin A inhibitory activity", IC50 given as class A/B/C, read-out: Activity (2): Cathepsin A inhibitory activity, IC50 class.
[5] abbreviates: read-out: Activity (2): Cathepsin A inhibitory activity, IC50 class.

Like-named read-outs stand apart in the source and are kept apart here.

In general, IC50 refers to the midpoint of a concentration-inhibition curve. As for `COc1ccc(F)c(C(CC(=O)O)NC(=O)c2cc(O)n(-c3ccccc3F)n2)c1` (stereo not shown) [Example 553, 3-(2-Fluoro-5-methoxy-phenyl)-3-{[1-(2-fluoro-phenyl)-5-hydroxy-1H-pyrazole-3-carbonyl]-amino}-propionic acid], the IC50 under setting [1] was 100 to 1000 nM and the IC50 under setting [2] turned out to be 732 nM. For `O=C(O)CC(NC(=O)c1cc(O)n(-c2ccccc2Cl)n1)c1ccc(-c2ccccn2)cc1` (stereo not shown) [Example 506, 3-{[1-(2-Chloro-phenyl)-5-hydroxy-1H-pyrazole-3-carbonyl]-amino}-3-(4-pyridin-2-yl-phenyl)-propionic acid], the IC50 reads like this: under setting [2], 52.4 nM; under setting [3], below 100 nM.

As for `Cc1ccccc1[C@H](CC(=O)O)NC(=O)c1cc(O)n(C2CCCCC2)n1` [Example 573], under setting [1], the IC50 was below 100 nM. In the case of `O=C(O)C[C@H](NC(=O)c1cc(O)n(-c2ccc(F)cc2F)n1)c1cccc(F)c1` [Example 183], the IC50 under setting [4] lay within 100 to 1000 nM. With `Cc1ccc(C(CC(=O)O)NC(=O)c2cc(O)n(-c3ccccc3)n2)cc1` (stereo not shown) [Example 64], the IC50 under setting [5] was in the range of 100 to 1000 nM. Turning to `O=C(O)CC(NC(=O)c1cc(O)n(-c2ccc(F)cc2)n1)c1ccc(-c2ccccn2)cc1` (stereo not shown) [Example 527, 3-{[1-(4-Fluoro-phenyl)-5-hydroxy-1H-pyrazole-3-carbonyl]-amino}-3-(4-pyridin-2-yl-phenyl)-propionic acid], the concentration for half-maximal inhibition (IC50) was 152 nM under setting [2] and 100 to 1000 nM under setting [3].

Take `O=C(O)CC(NC(=O)c1cc(O)n(-c2cccc(F)c2)n1)c1ccc(-c2ccccc2)cc1` (stereo not shown) [Example 327]: under setting [5], the IC50 fell in the range of 100 to 1000 nM. For `COc1ccccc1[C@@H](NC(=O)c1cc(O)n(-c2ccccc2Cl)n1)[C@@H](O)C(=O)O` [Example 216], under setting [4], the IC50 lay within 1000 to 30000 nM. With `CC(C)(C)c1ccc(C(CC(=O)O)NC(=O)c2cc(O)n(-c3ccccc3)n2)cc1` (stereo not shown) [Example 66], the IC50 under setting [5] was 1000 to 30000 nM.

With `COc1ccccc1[C@H](CC(=O)O)NC(=O)c1cc(OCC(C)(O)C(C)C)n(-c2ccccc2F)n1` (stereo partly drawn) [Example 811, (S)-3-{[1-(2-Fluoro-phenyl)-5-(2-hydroxy-2,3-dimethyl-butoxy)-1H-pyrazole-3-carbonyl]-amino}-3-(2-methoxy-phenyl)-propionic acid], the IC50 under setting [5] is below 100 nM.

Turning to `COc1cc(C(=O)N[C@@H](CC(=O)N[C@@H](C)C(C)(C)C)c2ccccc2C)nn1-c1ccccc1F` [Example 920, 1-(2-Fluoro-phenyl)-5-methoxy-1H-pyrazole-3-carboxylic acid [(S)-1-o-tolyl-2-((S)-1,2,2-trimethyl-propylcarbamoyl)-ethyl]-amide], the concentration for half-maximal inhibition (IC50) under setting [3] lay within 1000 to 30000 nM.

Regarding `Cc1cccc([C@H](CC(=O)O)NC(=O)c2cc(O)n(-c3cccc(F)c3)n2)c1` [Example 317], the IC50 under setting [5] was in the range of 100 to 1000 nM.

In the case of `Cc1ccccc1[C@H](CC(=O)O)NC(=O)c1cc(OCC2(C)COC2)n(-c2ccccc2F)n1` [Example 663], the IC50 under setting [1] was below 100 nM. As for `COc1cccc(F)c1C(CC(=O)O)NC(=O)c1cc(O)n(-c2ccc(Cl)cc2)n1` (stereo not shown) [Example 469, 3-{[1-(4-Chloro-phenyl)-5-hydroxy-1H-pyrazole-3-carbonyl]-amino}-3-(2-fluoro-6-methoxy-phenyl)-propionic acid], the half-maximal inhibitory concentration (IC50) is 860 nM under setting [2] and 100 to 1000 nM under setting [3]. For `O=C(O)C[C@H](NC(=O)c1cc(O)n(-c2cccc(F)c2)n1)c1cccnc1` [Example 334], the 50% inhibitory concentration (IC50) under setting [5] was in the range of 100 to 1000 nM. For `NS(=O)(=O)c1cccc(-n2nc(C(=O)NC(CC(=O)O)c3ccc(-c4ccc(F)cc4)cc3)cc2O)c1` (stereo not shown) [Example 606], under setting [1], the IC50 was in the range of 100 to 1000 nM.

With `Cc1ccc(F)cc1C(CC(=O)O)NC(=O)c1cc(O)n(-c2cccc(Cl)c2)n1` (stereo not shown) [Example 510, 3-{[1-(3-Chloro-phenyl)-5-hydroxy-1H-pyrazole-3-carbonyl]-amino}-3-(5-fluoro-2-methyl-phenyl)-propionic acid], the IC50 is, setting by setting: under setting [2], 175 nM; under setting [3], 100 to 1000 nM.

The values above are taken from patent US8664257B2, “Oxygen-substituted 3-heteroaroylamino-propionic acid derivatives and their use as pharmaceuticals” (Sanofi, priority 2010, dated 2014).
